Reference: patent US20240025883A1, “PYRIMIDIN-2-YL SULFONAMIDE DERIVATIVES” (Hoffmann-La Roche Inc., priority 2021, published 2024)

Tests used:
[1] = Microsome clearance assay, human; conditions: microsomes
Method: (§1) Incubations at a test compound of 1 mM in microsomes (0.5 mg/mL) plus cofactor NADPH are performed in 96 well plates at 37° C. on a TECAN (Tecan Group Ltd, Switzerland) automated liquid handling system. The final concentration of the test compound in the incubation is 1 microM. After a 10 minutes preincubation step of the test compound with the microsomes, the enzymatic reaction is started by the addition of cofactors. At 1, 3, 6, 9, 15, 25, 35 and 45 minutes, aliquots of the incubations are removed and quenched with 1:3 (v/v) acetonitrile containing internal standards. Samples are then cooled and centrifuged before analysis of the supernatant by LC-MS/MS.

[2] = Microsome clearance assay, rat; conditions: microsomes
Method: as §1

[3] = target: human GPR17 short isoform (Homo sapiens (Human), UniProt Q13304); test: GPR17 cAMP assay (hGPR17 cAMP, antagonist mode against EC80 of MDL29,951); format: cell-based; conditions: CHO-K1 cells stably expressing human GPR17 short isoform; EC80 of agonist MDL29,951; forskolin 15 μM
Outline: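 cAMP was read by competitive TR-FRET after a 30 min room-temperature stimulation: antagonists plus EC80 MDL29,951 and 0.5 mM IBMX, followed 5 min later by 15 μM forskolin. Cells were CHO-K1 with stable human GPR17 short isoform in HBSS/HEPES/BSA, pH 7.4; percent activity versus reference antagonist fitted sigmoidally.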

[4] = Microsome clearance assay, mouse; conditions: microsomes
Method: as §1

Sequence of human GPR17 short isoform (Q13304 29-367): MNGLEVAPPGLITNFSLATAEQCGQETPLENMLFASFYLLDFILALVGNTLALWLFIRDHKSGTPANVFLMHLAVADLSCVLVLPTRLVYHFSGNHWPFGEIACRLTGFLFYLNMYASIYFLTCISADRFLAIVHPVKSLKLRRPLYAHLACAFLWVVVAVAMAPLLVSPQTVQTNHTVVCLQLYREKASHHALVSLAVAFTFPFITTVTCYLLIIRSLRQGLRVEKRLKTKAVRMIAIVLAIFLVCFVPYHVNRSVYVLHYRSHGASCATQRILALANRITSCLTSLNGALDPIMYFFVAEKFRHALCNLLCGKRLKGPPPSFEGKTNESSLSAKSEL

Compound | microsomal CLint at 1 µM [1] [µL/min/mg] | microsomal CLint at 1 µM [2] [µL/min/mg] | IC50 [3] [µM] | microsomal CLint at 1 µM [4] [µL/min/mg]
COc1nc(NS(=O)(=O)c2c[nH]c3cc(Cl)ccc23)ncc1OCCF [Example 1, 6-chloro-N-[5-(2-fluoroethoxy)-4-methoxy-pyrimidin-2-yl]-1H-indole-3-sulfonamide] | 16 | 29 | 0.069 | 10
COc1nc(NS(=O)(=O)c2c[nH]c3cc(Cl)ccc23)ncc1Br [Example 22, N-(5-bromo-4-methoxy-pyrimidin-2-yl)-6-chloro-1H-indole-3-sulfonamide] | 10 | 10 | 0.515 | 10
COc1nc(NS(=O)(=O)c2c[nH]c3cc(Cl)ccc23)ncc1CC(F)F [Example 47, 6-chloro-N-[5-(2,2-difluoroethyl)-4-methoxy-pyrimidin-2-yl]-1H-indole-3-sulfonamide] | 10 | 110 | 0.019 | 10
COc1nc(NS(=O)(=O)c2c[nH]c3c(S(C)(=O)=O)c(Cl)ccc23)ncc1CC(F)F [Example 277, 6-chloro-N-[5-(2,2-difluoroethyl)-4-methoxy-pyrimidin-2-yl]-7-mesyl-1h-indole-3-sulfonamide] | – | – | 0.718 | –
COc1nc(NS(=O)(=O)c2c[nH]c3c([S+](C)[O-])c(Cl)ccc23)nc(OC)c1OCCF (stereo not drawn) [Example 278, 6-chloro-N-[5-(2-fluoroethoxy)-4,6-dimethoxy-pyrimidin-2-yl]-7-methylsulfinyl-1h-indole-3-sulfonamide] | – | – | 0.229 | –
COc1nc(NS(=O)(=O)c2c[nH]c3c([S+](C)[O-])c(Cl)ccc23)nc(OC)c1CC(F)F (stereo not drawn) [Example 279, 6-chloro-N-[5-(2,2-difluoroethyl)-4,6-dimethoxy-pyrimidin-2-yl]-7-methylsulfinyl-1H-indole-3-Sulfonamide] | – | – | 0.069 | –
COc1nc(NS(=O)(=O)c2c[nH]c3c(C#N)c(Cl)ccc23)ncc1OCCF [Example 280, 6-Chloro-7-Cyano-N-[5-(2-Fluoroethoxy)-4-Methoxy-Pyrimidin-2-Yl]-1H-Indole-3-Sulfonamide] | – | – | 0.062 | –
COc1nc(NS(=O)(=O)c2c[nH]c3cc(Cl)ccc23)nc(OC)c1CCS(C)(=O)=O [Example 281, 6-Chloro-N-[4,6-Dimethoxy-5-(2-Methylsulfonylethyl)Pyrimidin-2-Yl]-1H-Indole-3-Sulfonamide] | – | – | 0.237 | –
COc1nc(NS(=O)(=O)c2c[nH]c3c2ccc2sncc23)ncc1CC(F)F [Example 282, N-[5-(2,2-Difluoroethyl)-4-Methoxy-Pyrimidin-2-Yl]-1H-Pyrrolo[2,3-e][1,2]Benzothiazole-3-Sulfonamide] | – | – | 0.11 | –
COc1nc(NS(=O)(=O)c2c[nH]c3c(Br)c(Cl)ccc23)nc(OC)c1CC(F)F [Example 283, 7-Bromo-6-Chloro-N-[5-(2,2-Difluoroethyl)-4,6-Dimethoxy-Pyrimidin-2-Yl]-1H-Indole-3-Sulfonamide] | – | – | 0.013 | –
COc1nc(NS(=O)(=O)c2c[nH]c3nc(C)ccc23)nc(OC)c1OCC#N [Example 284, N-[5-(Cyanomethoxy)-4,6-Dimethoxy-Pyrimidin-2-Yl]-6-Methyl-1H-Pyrrolo[2,3-b]Pyridine-3-Sulfonamide] | – | – | 0.273 | –
COc1nc(NS(=O)(=O)c2c[nH]c3nc(C)ccc23)nc(OC)c1OCC(F)F [Example 285, N-[5-(2,2-Difluoroethoxy)-4,6-Dimethoxy-Pyrimidin-2-Yl]-6-Methyl-1H-Pyrrolo[2,3-b]Pyridine-3-Sulfonamide] | – | – | 0.117 | –
COc1nc(NS(=O)(=O)c2c[nH]c3nc(C)ccc23)nc(OC)c1OC(F)F [Example 286, N-[5-(Difluoromethoxy)-4,6-Dimethoxy-Pyrimidin-2-Yl]-6-Methyl-1H-Pyrrolo[2,3-b]Pyridine-3-Sulfonamide] | – | – | 0.203 | –
COc1nc(NS(=O)(=O)c2c[nH]c3nc(C(F)F)ccc23)nc(OC)c1CC(F)CF (stereo not drawn) [Example 287, 6-(Difluoromethyl)-N-[5-(2,3-Difluoropropyl)-4,6-Dimethoxy-Pyrimidin-2-Yl]-1H-Pyrrolo[2,3-b]Pyridine-3-Sulfonamide] | – | – | 0.114 | –
COc1nc(NS(=O)(=O)c2c[nH]c3nc(Br)ccc23)nc(OC)c1CC(F)CF (stereo not drawn) [Example 288, 6-Bromo-N-[5-(2,3-Difluoropropyl)-4,6-Dimethoxy-Pyrimidin-2-Yl]-1H-Pyrrolo[2,3-b]Pyridine-3-Sulfonamide] | – | – | 0.057 | –
COc1nc(NS(=O)(=O)c2c[nH]c3nc(Cl)ccc23)nc(OC)c1CC(F)CF (stereo not drawn) [Example 289, 6-Chloro-N-[5-(2,3-Difluoropropyl)-4,6-Dimethoxy-Pyrimidin-2-Yl]-1H-Pyrrolo[2,3-b]Pyridine-3-Sulfonamide] | – | – | 0.069 | –
COc1nc(NS(=O)(=O)c2c[nH]c3c2ccc2scnc23)ncc1CC(F)F [Example 290, N-[5-(2,2-Difluoroethyl)-4-Methoxy-Pyrimidin-2-Yl]-8H-Pyrrolo[2,3-e][1.3]Benzothiazole-6-Sulfonamide] | – | – | 0.405 | –
COC(=O)c1c(C)ccc2c(S(=O)(=O)Nc3ncc(CC(F)F)c(OC)n3)c[nH]c12 [Example 291, 3-[[5-(2,2-Difluoroethyl)-4-Methoxy-Pyrimidin-2-Yl]Sulfamoyl]-6-Methyl-1H-Indole-7-Carboxylic Acid Methyl Ester] | – | – | 0.842 | –
COc1nc(NS(=O)(=O)c2c[nH]c3c(CO)c(C)ccc23)ncc1CC(F)F [Example 292, N-[5-(2,2-Difluoroethyl)-4-Methoxy-Pyrimidin-2-Yl]-6-Methyl-7-Methylol-1H-Indole-3-Sulfonamide] | – | – | 0.433 | –
COc1nc(NS(=O)(=O)c2c[nH]c3c4c(ccc23)CCN(C)C4=O)ncc1OCCF [Example 293, N-[5-(2-Fluoroethoxy)-4-Methoxy-Pyrimidin-2-Yl]-9-Keto-8-Methyl-6,7-Dihydro-1H-Pyrrol[3,2-h]Isoquinoline-3-Sulfonamide] | – | – | 0.24 | –
COc1nc(NS(=O)(=O)c2c[nH]c3c(OCC#N)c(Cl)ccc23)nc(OC)c1CC(F)F [Example 294, 6-Chloro-7-(Cyanomethoxy)-N-[5-(2,2-Difluoroethyl)-4,6-Dimethoxy-Pyrimidin-2-Yl]-1H-Indole-3-Sulfonamide] | – | – | 0.024 | –
COc1nc(NS(=O)(=O)c2c[nH]c3cc(Cl)ccc23)c(F)cc1OCCF [RE-A, 6-chloro-N-[3-fluoro-5-(2-fluoroethoxy)-6-methoxy-2-pyridyl]-1H-indole-3-sulfonamide, reference compound] | 121 | 357 | – | 77
COc1nc(NS(=O)(=O)c2c[nH]c3c(F)c(Cl)ccc23)c(F)cc1OCC(F)F [RE-B, reference compound] | 11 | 65 | – | 26
COc1nc(NS(=O)(=O)c2c[nH]c3cc(Cl)ccc23)c(F)cc1CC(F)F [RE-C, 6-chloro-N-[5-(2,2-difluoroethyl)-3-fluoro-6-methoxy-2-pyridyl]-1H-indole-3-sulfonamide, reference compound] | 35 | 286 | – | 81
COc1nc(NS(=O)(=O)c2c[nH]c3cc(Cl)ccc23)c(F)cc1CCC#N [RE-D, 6-chloro-N-[5-(2-cyanoethyl)-3-fluoro-6-methoxy-2-pyridyl]-1H-indole-3-sulfonamide, reference compound] | 103 | 869 | – | 121
